Activity calls are given as the source filed them. No rule for the calls is given here.
Biological target: Small ubiquitin-related modifier 2 (Homo sapiens) (UniProt P61956)
Test: disruption of SUMO2 interaction with SIM peptide – biochemical, fluorescence polarization, uHTS hits, selectivity assay for SUMO1 interaction inhibitor project, dose response (AID 624385)
Settings: SUMO2-SIM peptide binding

Small ubiquitin-related modifier 2 (Homo sapiens), sequence (P61956 whole entry, looked up): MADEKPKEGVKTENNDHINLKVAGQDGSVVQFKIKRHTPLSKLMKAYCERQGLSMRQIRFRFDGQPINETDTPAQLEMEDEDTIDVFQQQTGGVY

Compound	IC50
C[c-]1[c-](C)[c-](C)[c-](C)[c-]1C.[Fe].c1cc2nccc(N3CCCC3)[c-]2c1 (configuration not stated)	inactive
N#CC(C(=O)Nc1cccc(Cl)c1)=C1Nc2ccccc2N1	> 66 µM (inactive)
